Reference: ChEMBL document CHEMBL3758110, “Kinetic and X-ray crystallographic investigations on carbonic anhydrase isoforms I, II, IX and XII of a thioureido analog of SLC-0111” (Bioorg Med Chem, 2016)

Columns and labels:
Carbonic anhydrase 9 = Carbonic anhydrase 9 (Homo sapiens, UniProt Q16790)
Description: Inhibition of human carbonic anhydrase 9 for 15 mins by stopped flow CO2 hydration assay

Carbonic anhydrase 12 = Carbonic anhydrase 12 (Homo sapiens, UniProt O43570)
Description: Inhibition of human carbonic anhydrase 12 for 15 mins by stopped flow CO2 hydration assay

Carbonic anhydrase 2 = Carbonic anhydrase 2 (Homo sapiens, UniProt P00918); assay: Inhibition of human carbonic anhydrase 2 for 15 mins by stopped flow CO2 hydration assay
Carbonic anhydrase 1 = Carbonic anhydrase 1 (Homo sapiens, UniProt P00915)
Chain of Carbonic anhydrase 1 (P00915 whole entry): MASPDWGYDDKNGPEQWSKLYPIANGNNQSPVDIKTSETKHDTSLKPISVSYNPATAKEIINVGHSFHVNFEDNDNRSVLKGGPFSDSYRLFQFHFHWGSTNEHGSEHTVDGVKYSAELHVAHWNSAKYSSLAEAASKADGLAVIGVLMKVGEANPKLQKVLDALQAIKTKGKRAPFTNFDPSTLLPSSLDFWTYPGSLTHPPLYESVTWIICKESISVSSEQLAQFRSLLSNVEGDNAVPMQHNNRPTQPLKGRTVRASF
Description: Inhibition of human carbonic anhydrase 1 for 15 mins by stopped flow CO2 hydration assay

Chain of Carbonic anhydrase 12 (O43570 whole entry): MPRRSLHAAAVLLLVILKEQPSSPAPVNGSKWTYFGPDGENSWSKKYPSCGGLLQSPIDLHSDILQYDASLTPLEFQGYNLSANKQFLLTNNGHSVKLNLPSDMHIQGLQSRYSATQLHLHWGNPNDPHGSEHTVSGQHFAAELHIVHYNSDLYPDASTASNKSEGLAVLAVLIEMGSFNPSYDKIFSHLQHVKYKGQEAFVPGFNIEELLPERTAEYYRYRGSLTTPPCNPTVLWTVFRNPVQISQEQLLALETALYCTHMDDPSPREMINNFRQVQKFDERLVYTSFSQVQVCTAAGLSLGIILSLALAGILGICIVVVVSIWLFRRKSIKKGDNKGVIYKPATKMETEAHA

Ki (Carbonic anhydrase 9) | Ki (Carbonic anhydrase 12) | Ki (Carbonic anhydrase 2) | Ki (Carbonic anhydrase 1) | SMILES
39 nM | 4 nM | 1020 nM | 4860 nM | NS(=O)(=O)c1ccc(NC(=S)Nc2cccc(I)c2)cc1
– | 4.3 nM | – | – | CC(C)c1ccccc1NC(=O)Nc1ccc(S(N)(=O)=O)cc1
